Measurements: patent EP0089635A2, “Phospholipid derivatives, process for preparation thereof and pharmaceutical composition of the same” (FUJISAWA PHARMACEUTICAL CO., LTD., priority 1982, dated 1983)

How the values were obtained:
Assay type in all cases: in vivo, BALB/c mice
[1] = Test Method A: body weight of the treated mice; conditions: 100 µg/mouse intratumorally once daily Day 1 to Day 4; for Body weight of mice (g) Day 0 *d: initial day
Method: Groups of six female BALB/c mice, aged 12 weeks and weighing 19 - 21 g were used. Test compound was dissolved in 0.5% methylcellulose saline solution, and was intratumorally injected to each of the mice in doses of 100 µg/mouse once daily from Day 1 to Day 4 postimplant. Body weight was checked on initial day and Day 4.

Fibrosarcoma Meth-A = assay: Test Method A: antitumor effect on intradermally inoculated Meth-A tumor, intratumoral injection of test compound; conditions: 100 µg/mouse intratumorally once daily Day 1 to Day 4; for Tumor growth inhibition (%) *b: (1-T/C)x100 of mean tumor diameter on Day 21; for Mean tumor size (mm) *a: female BALB/c mice, 1 x 10^5 Meth-A cells intradermally, mean diameter of tumor on Day 21; for Ratio of tumor free mice *c: groups of six mice
Method: Fibrosarcoma Meth-A (hereinafter referred to as Meth-A) was successively transferred every 7 days into BALB/c mice by intraperitoneal inoculation of the ascites cells thereof and the Meth-A in the ascites cells as harvested 6 days after the inoculation was used as tumor cells.
Each of the BALB/c mice was inoculated intradermally with 1 x 10^5 Meth-A cells in 0.05 ml Hanks solution.
(§1) The control group was given with a vehicle alone in the same way.
The antitumor effectiveness of the test compound was estimated by tumor growth inhibition : (1-T/C)x100. • T : Mean diameter of the growing tumor of the medicated group on Day 21. • C : Mean diameter of the growing tumor of the control group on Day 21.

Fibrosarcoma Meth A = assay: Test Method B: survival of mice inoculated intrapleurally with Meth A, injection of test compound into pleural cavity; parameters: dose or concentration left out as unconfirmed; conditions: for Anti-tumor activity (%) *f: T/C x 100 of mean survival time, into pleural cavity three times; for Mean survival time: female BALB/c mice, Meth A cells intrapleurally, into pleural cavity three times (before 14 days, after 1 hour, after 3 days of tumor implantation)
Method: Groups of eight female BALB/c mice, aged 8-9 weeks and weighing 18.0-22.5 g were used.
Fibrosarcoma Meth A (hereinafter referred to as Meth A) was successively transferred every 7 days into BALB/c mice by intraperitoneal inoculation of the ascites cells thereof and the Meth A in the ascites cells as harvested 6 or 7 days after the inoculation was used as tumor cells.
Each of the BALB/c mice was inoculated intrapleurally with 5 x 10 Meth A cells in 0.1 ml Hanks solution.
Test compound was dissolved in phosphate buffer saline solution, and was injected into pleural cavity to each of the mice in doses of 100 pg/0.05 ml/mouse three times, i.e. before 14 days, after I hour and after 3 days of tumor implantation.
as §1
The antitumor activity of the test compound was estimated by comparing mean survival time of the two groups. • T : Mean survival time of the medicated group • C : Mean survival time of the control group

SMILES	Body weight of mice (g) Day 4 *e [1] [g]	Body weight of mice (g) Day 0 *d [1] [g]	Tumor growth inhibition (%) *b (Fibrosarcoma Meth-A) [%]	Mean tumor size (mm) *a (Fibrosarcoma Meth-A) [mm]	Ratio of tumor free mice *c (Fibrosarcoma Meth-A)	Anti-tumor activity (%) *f (Fibrosarcoma Meth A) [%]	Mean survival time (Fibrosarcoma Meth A) [days]
CCCCCCCCCCCCCCCCCCOCC(COP(=O)([O-])OCC[n+]1ccccc1)OC(=O)NC (racemic) [Example 1 - (4), (rac)-1-O-octadecyl-2-O-methylcarbamoyl-glycerol-3-[2-(1-pyridinio)ethyl]-phosphate]	19.1 ± 1.68	18.3 ± 1.11	100	0	6/6		
CCCCCCCCCCCCCCCCCCOCC(COP(=O)([O-])OCC[n+]1ccccc1)OC(=O)Nc1ccccc1 (racemic) [Example 2 - (4), (rac)-1-O-Octadecyl-2-O-phenylcarbamoyl-glycerol-3-[2-(l-pyridinio)ethyl]phosphate]						117	7.0
CCCCCCCCCCCCCCCCCCOCC(COP(=O)([O-])OCC[n+]1ccccc1)OC(N)=O (racemic) [Example 3 - (4), (rac)-1-O-0ctadecyl-2-O-carbamoyl-glycerol-3-[2-(1-pyridinio)ethyl]phosphate]						536	37.5
CCCCCCCCCCCCCCCCCCOCC(COP(=O)(O)OCCN1CCN(C)CC1)OC(N)=O (racemic) [Example 4, (rac)-l-O-Octadecyl-2-0-carbamoyl-glycerol-3-[2-(4-methyl-l-piperazinyl)ethyl]phosphate]	20.2 ± 1.11	19.5 ± 0.60	100	0	6/6	236	16.5
